# Test results: PubChem BioAssay (NCI)
#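 Five compound concentrations were applied to cells in 96-well plates for 48 hours; endpoints were derived by simple linear interpolation of the resulting dose-response curve. At the TGI there is no net growth.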
# Experiments:
# Test in all cases: growth of human tumour cells (NCI), 48 h
# 786-0 renal = test system: 786-0 renal
# A549 NSCLC = test system: A549 NSCLC
# ACHN renal = test system: ACHN renal
# BT-549 breast = test system: BT-549 breast
# CAKI-1 renal = test system: CAKI-1 renal
# CCRF-CEM leukemia = test system: CCRF-CEM leukemia
# COLO 205 colon = test system: COLO 205 colon
# DU-145 prostate = test system: DU-145 prostate
# EKVX NSCLC = test system: EKVX NSCLC
# HCC-2998 colon = test system: HCC-2998 colon
# HCT-116 colon = test system: HCT-116 colon
# HCT-15 colon = test system: HCT-15 colon
# HL-60(TB) leukemia = test system: HL-60(TB) leukemia
# HOP-62 NSCLC = test system: HOP-62 NSCLC
# HS 578T breast = test system: HS 578T breast
# HT29 colon = test system: HT29 colon
# IGROV1 ovarian = test system: IGROV1 ovarian
# K-562 leukemia = test system: K-562 leukemia
# KM12 colon = test system: KM12 colon
# LOX IMVI melanoma = test system: LOX IMVI melanoma
# MALME-3M melanoma = test system: MALME-3M melanoma
# MCF7 breast = test system: MCF7 breast
# MDA-MB-231 breast = test system: MDA-MB-231 breast
# MDA-MB-435 = test system: MDA-MB-435
# MDA-N = test system: MDA-N
# MOLT-4 leukemia = test system: MOLT-4 leukemia
# NCI-H226 lung = test system: NCI-H226 lung
# NCI-H23 lung = test system: NCI-H23 lung
# NCI-H460 lung = test system: NCI-H460 lung
# NCI-H522 lung = test system: NCI-H522 lung
# NCI/ADR-RES ovarian = test system: NCI/ADR-RES ovarian
# OVCAR-3 ovarian = test system: OVCAR-3 ovarian
# OVCAR-5 ovarian = test system: OVCAR-5 ovarian
# OVCAR-8 ovarian = test system: OVCAR-8 ovarian
# PC-3 prostate = test system: PC-3 prostate
# RPMI-8226 leukemia = test system: RPMI-8226 leukemia
# RXF 393 renal = test system: RXF 393 renal
# SF-295 CNS = test system: SF-295 CNS
# SF-539 CNS = test system: SF-539 CNS
# SK-MEL-28 melanoma = test system: SK-MEL-28 melanoma
# SK-MEL-5 melanoma = test system: SK-MEL-5 melanoma
# SN12C renal = test system: SN12C renal
# SNB-19 CNS = test system: SNB-19 CNS
# SNB-75 CNS = test system: SNB-75 CNS
# SR leukemia = test system: SR leukemia
# SW-620 colon = test system: SW-620 colon
# TK-10 renal = test system: TK-10 renal
# U251 CNS = test system: U251 CNS
# UACC-257 melanoma = test system: UACC-257 melanoma
# UACC-62 melanoma = test system: UACC-62 melanoma
# UO-31 renal = test system: UO-31 renal
structure (smiles),measurement,setting,value
C=C1C(=O)O[C@H]2C[C@@]3(COC(C)=O)C=COC=C(COC(=O)C(C)C)C3CC12 (stereo partly specified),TGI,786-0 renal,> 100 µM
same,TGI,A549 NSCLC,> 100 µM
same,TGI,ACHN renal,> 100 µM
same,TGI,BT-549 breast,> 100 µM
same,TGI,CAKI-1 renal,> 100 µM
same,TGI,CCRF-CEM leukemia,63.8 µM
same,TGI,COLO 205 colon,> 100 µM
same,TGI,DU-145 prostate,> 100 µM
same,TGI,EKVX NSCLC,> 100 µM
same,TGI,HCC-2998 colon,> 100 µM
same,TGI,HCT-116 colon,> 100 µM
same,TGI,HCT-15 colon,> 100 µM
same,TGI,HL-60(TB) leukemia,63.2 µM
same,TGI,HOP-62 NSCLC,> 100 µM
same,TGI,HS 578T breast,> 100 µM
same,TGI,HT29 colon,> 100 µM
same,TGI,IGROV1 ovarian,> 100 µM
same,TGI,K-562 leukemia,> 100 µM
same,TGI,KM12 colon,> 100 µM
same,TGI,LOX IMVI melanoma,> 100 µM
same,TGI,MALME-3M melanoma,> 100 µM
same,TGI,MCF7 breast,> 100 µM
same,TGI,MDA-MB-231 breast,> 100 µM
same,TGI,MDA-MB-435,> 100 µM
same,TGI,MDA-N,> 100 µM
same,TGI,MOLT-4 leukemia,> 100 µM
same,TGI,NCI-H226 lung,> 100 µM
same,TGI,NCI-H23 lung,> 100 µM
same,TGI,NCI-H460 lung,> 100 µM
same,TGI,NCI-H522 lung,> 100 µM
same,TGI,NCI/ADR-RES ovarian,> 100 µM
same,TGI,OVCAR-3 ovarian,> 100 µM
same,TGI,OVCAR-5 ovarian,> 100 µM
same,TGI,OVCAR-8 ovarian,> 100 µM
same,TGI,PC-3 prostate,> 100 µM
same,TGI,RPMI-8226 leukemia,63.6 µM
same,TGI,RXF 393 renal,> 100 µM
same,TGI,SF-295 CNS,> 100 µM
same,TGI,SF-539 CNS,> 100 µM
same,TGI,SK-MEL-28 melanoma,> 100 µM
same,TGI,SK-MEL-5 melanoma,> 100 µM
same,TGI,SN12C renal,> 100 µM
same,TGI,SNB-19 CNS,> 100 µM
same,TGI,SNB-75 CNS,67.5 µM
same,TGI,SR leukemia,91.8 µM
same,TGI,SW-620 colon,> 100 µM
same,TGI,TK-10 renal,> 100 µM
same,TGI,U251 CNS,> 100 µM
same,TGI,UACC-257 melanoma,> 100 µM
same,TGI,UACC-62 melanoma,41.2 µM
same,TGI,UO-31 renal,> 100 µM
